From US10793514B2, “Glutamine transport inhibitors and methods for treating cancer” (Vanderbilt University, priority 2016, dated 2020) come the findings set out here.

SMILES strings stand for the structures.

The target of one data set is ASCT1 (SLC1A4) (Mus musculus (Mouse), UniProt O35874). Put plainly: Drug Affinity Responsive Target Stability (DARTS) assay, ASCT1. The class given is binding. The conditions noted are these: thermolysin. On the procedure:
DARTS was carried out as previously described^15 using T-REx-293 cells with tetracycline-inducible expression of ASCT2 or lysate from 115 mg of homogenized mouse brain for ASCT1. […] Lysates were then incubated at room temperature with the protease Thermolysin (1:100 and 1:200 total enzyme to total substrate) for 30 min. ASCT2 was measured by immunoblotting (ASCT2 antibody: Millipore ABN73; ASCT1 antibody: Cell Signaling 8442).

Data set [1] in a line: V-9302 concentration in whole blood with time. As to conditions: single dose 75 mg/kg, healthy mice. The class given is in vivo, mouse. On the procedure:
Liquid chromatography-tandem mass spectroscopy (LC-MS/MS) analyses were performed via reverse phase chromatography using a Shimadzu Nexera X2 UPLC (Columbia, Md.) coupled with a QTrap® 5500 (Sciex, Framinghman, MA, USA). […] Blank samples were made using fresh whole blood applied to Mitra® Microsamplers and allowed to dry for at least 24 h. All data were collected using Sciex Analyst 1.6.2 software and analyzed with MultiQuant 3.0 software. Error is reported as standard deviation (SD).

Data set [2] has as its system HCC1806 cell line xenograft. Nature of the data set: [18F]-4F-glutamine PET imaging. It counts as in vivo, mouse. As to conditions: single dose 75 mg/kg, 4 h. On the procedure: Animal handling methods for PET imaging studies were conducted as reported^5,42 Prior to imaging, animals were allowed to acclimate to facility environment for at least 1 h in a warmed chamber at 31.5° C. Animals were administered 10.4-11.8 MBq 4-[^18F]fluoroglutamine via intravenous injection and imaged using a Concorde Microsystems Focus 220 microPET scanner (Siemens Preclinical Solutions). During imaging, animals were maintained under 2% isoflurane anesthesia in oxygen at 2 L/min and kept warm for the duration of the PET scan. PET images in xenograft-bearing mice were acquired as 60-minute dynamic data sets. […] PET data were reconstructed using a three-dimensional (3D) ordered subset expectation maximization/maximum a posteriori (OSEM3D/MAP) algorithm. […] ASIPro software (Siemens Preclinical Solutions) was used to manually draw 3D regions of interest (ROIs) surrounding the entire tumor volume. 4-[^18F]fluoroglutamine uptake was quantified as the percentage of the injected dose per gram of tissue (% ID/g). Significance was calculated using a t-test in Graphpad Prism. Error is reported as standard deviation (SD).
For in vivo studies, cell-line xenograft tumors were propagated in 6-week old, female athymic nude mice from immortalized cell lines. […] Tumor volumes were measured manually using calipers every third day and quantified using the formula V=W·L·(H/2).

In data set [3] the test system is HCT-116 (KRAS G13D) cell-line xenografts. Put plainly: HCT-116 xenograft chronic exposure study. The conditions noted are these: 75 mg/kg per day, 21 days. The class given is in vivo, mouse. On the procedure: (§1) Tissues were sectioned (5 μm thickness) and stained for pS6 (Cell Signaling, #4858) and caspase 3 (Cell Signaling #9661). Tissue slides were imaged at 20× magnification.
(§2) For in vivo studies, cell-line xenograft tumors were propagated in 6-week old, female athymic nude mice from immortalized cell lines. For HCC-1806 (10×10^6 cells), HCT-116 (5×10^6), and HT29 (10×10^6) cells were injected. Palpable tumors were typically visible within 2-3 weeks. For imaging studies (HCC-1806), tumors were propagated to approximately 500 mm^3. For treatment studies (HCT-116, HT29) tumors were propagated to approximately 200 mm^3 prior to therapy and were randomly assigned into treated and untreated cohorts. For generating the PDX, primary tumor tissue was obtained form a patient at Vanderbilt University Medical Center under an IRB approved protocol. The tumor tissue was genotyped within the VANTAGE core facility. Xenograft was generated as previously described 41. Briefly, tumor tissues were sectioned into approximately 125 cubic millimeter pieces then implanted subcutaneously without further manipulation. […] Tumor volumes were measured manually using calipers every third day and quantified using the formula V=W·L·(H/2).

Data set [4] deals with patient-derived xenograft (PDX) tumor A-008. Nature of the data set: Patient-derived xenograft chronic exposure study. The class given is in vivo, mouse. The conditions noted are these: 75 mg/kg daily, 31 days; vs vehicle. On the procedure:
as §2
(In xenograft studies the graft and the host belong to different species.)

The next data set concerns HCC1806 xenografts. Put plainly: HCC1806 xenograft 10-day exposure study. The conditions noted are these: 75 mg/kg per day, 10 days. It counts as in vivo, mouse. On the procedure:
as §1, §2

The next data set addresses ASCT2 (Homo sapiens (Human), UniProt Q15758). Nature of the data set: Drug Affinity Responsive Target Stability (DARTS) assay, ASCT2. The conditions noted are these: tetracycline-inducible ASCT2 HEK293 cells; 50, 100, 200 μM.

Chain of ASCT2 (Q15758 whole entry): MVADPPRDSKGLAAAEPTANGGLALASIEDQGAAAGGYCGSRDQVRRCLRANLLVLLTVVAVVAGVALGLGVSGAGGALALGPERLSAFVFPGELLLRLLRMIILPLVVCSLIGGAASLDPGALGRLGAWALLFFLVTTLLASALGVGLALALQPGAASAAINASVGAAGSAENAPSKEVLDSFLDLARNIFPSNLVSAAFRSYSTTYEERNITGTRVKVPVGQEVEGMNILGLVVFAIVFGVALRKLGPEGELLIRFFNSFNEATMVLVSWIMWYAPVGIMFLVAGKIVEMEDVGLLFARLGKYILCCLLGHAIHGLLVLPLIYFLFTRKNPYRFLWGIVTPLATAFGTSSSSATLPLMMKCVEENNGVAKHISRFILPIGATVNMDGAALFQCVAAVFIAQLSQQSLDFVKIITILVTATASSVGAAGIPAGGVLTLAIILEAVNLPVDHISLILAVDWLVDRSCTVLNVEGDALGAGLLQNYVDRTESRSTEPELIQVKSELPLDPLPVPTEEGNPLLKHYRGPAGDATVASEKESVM
Chain of ASCT1 (SLC1A4) (O35874 whole entry): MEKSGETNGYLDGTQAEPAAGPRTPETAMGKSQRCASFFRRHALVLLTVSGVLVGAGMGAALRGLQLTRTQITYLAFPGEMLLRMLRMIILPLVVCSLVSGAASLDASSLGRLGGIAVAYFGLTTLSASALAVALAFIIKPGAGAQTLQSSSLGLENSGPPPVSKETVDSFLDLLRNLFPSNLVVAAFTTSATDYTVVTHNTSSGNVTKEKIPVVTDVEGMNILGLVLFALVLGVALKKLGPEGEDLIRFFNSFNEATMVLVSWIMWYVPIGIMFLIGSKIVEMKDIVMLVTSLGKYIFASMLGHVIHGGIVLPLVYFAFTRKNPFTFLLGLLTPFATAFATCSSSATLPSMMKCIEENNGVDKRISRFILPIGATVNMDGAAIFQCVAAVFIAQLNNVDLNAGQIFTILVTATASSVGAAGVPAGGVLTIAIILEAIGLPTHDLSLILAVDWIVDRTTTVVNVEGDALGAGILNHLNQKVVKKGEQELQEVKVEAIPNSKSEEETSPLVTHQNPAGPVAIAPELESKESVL

For the molecule `Cc1cccc(COc2ccccc2CN(CCC(N)C(=O)O)Cc2ccccc2OCc2cccc(C)c2)c1` (centres unmarked) [Compound V-9302], at ASCT1 (SLC1A4), the “stabilization of ASCT1” value is “not stabilized”. Moreover, the half-life (in general, how long it takes for the measured level to halve) in data set [1] (mouse, whole blood) was around 6 h. Besides, the “time to steady-state whole blood concentration” value in data set [1] came to 4 h. Further, in data set [2], the “reduction of [18F]-4F-glutamine uptake in tumors” value is reported as “approximately 50%”. Further, in data set [3] (IHC), the “cleaved caspase 3 in tumor tissue” value is reported as “elevated levels of cleaved caspase 3” and the “pS6 in tumor tissue” value is on record as “significantly decreased pS6”. Besides, in data set [3] (vs vehicle), the tumor growth result is reported as “prevented tumor growth”. In addition, the tumor volume result in data set [4] is recorded as “reduction in tumor volume”. For the same molecule, in the data set on HCC1806 xenografts, the tumor growth result is recorded as “tumor growth arrest”; the tumor response markers result was “elevated LC3B and cleaved caspase 3, along with decreased pAKT (Ser473) and pS6”. At ASCT2, the “protection of ASCT2 from proteolysis (thermolysin)” value is recorded as “protected from proteolysis in a V-9302 concentration-dependent manner”.
